Experimental data published in publication PMC8233901, “D-Amino Acid-Containing Lipopeptides Derived from the Lead Peptide BP100 with Activity against Plant Pathogens” (International Journal of Molecular Sciences, 2021).
Where a SMILES comes first, the peptide text is derived from it. [ ]: non-standard residue; d: D form. The star is where a group is joined. Lauroyl = CCCCCCCCCCCC(=O)*; Butyryl = CCCC(=O)*

Key:
[1] = tested on: tobacco leaves; test: Effect of peptide infiltration on tobacco leaves (lesion size); type: in vivo; conditions: for Size of the lesion (mm) 50 µM: 100 µL infiltrated into mesophyll of tobacco leaves; for Size of the lesion (mm) 50 µM / Size of the lesion (mm) 150 µM / Size of the lesion (mm) 250 µM: ± confidence interval
Description: The lipopeptides were evaluated for their effect upon infiltration on tobacco leaves as described previously. Peptide solutions of 50, 150 and 250 μM were infiltrated (100 μL) into the mesophylls of fully expanded tobacco leaves. Infiltrations were carried out in a single leaf, and for each peptide and dose, at least three leaves randomly distributed in different plants were infiltrated. Control infiltrations with water (negative control) or melittin (positive control) at the same molar concentration were performed. The appearance of symptoms on the leaves was followed for 48 h after infiltration and measured as a lesion diameter.

[2] = tested on: horse erythrocytes; test: Hemolytic activity (hemoglobin release from erythrocytes); type: cell-based; conditions: D-amino acid lipopeptides, TRIS buffer pH 7.2, 1 h, 37 °C, ± confidence interval (α = 0.05); for Hemolysis (%) 50 µM: absorbance 540 nm, relative to melittin 100 µM
Description: The hemolytic activity of the compounds was evaluated by determining hemoglobin release from erythrocyte suspensions of horse blood (5% vol/vol) (Oxoid) as previously described. Blood was centrifuged at 6000 g for 5 min, washed three times with tris(hydroxymethyl)aminomethane (TRIS) buffer (10 mM TRIS, 150 mM NaCl, pH 7.2) and diluted 10 times. Compounds were solubilized in TRIS buffer at 750, 500, 300 and 100 μM and mixed with horse erythrocytes (1:1 v/v). The mixture was incubated under continuous shaking for 1 h at 37 °C. Then, the tubes were centrifuged at 3500 g for 10 min, 80 μL aliquots of the supernatant transferred to 100-well microplates (Bioscreen), diluted with 80 μL water, and the absorbance measured at 540 nm (Bioscreen). Complete hemolysis was obtained by the addition of melittin at 100 μM (Sigma-Aldrich Corporation, Madrid, Spain). The percentage of hemolysis (H) was calculated using the equation: H = 100 × [(Op−Ob)/(Om−Ob)], where Op is the density for a given compound concentration, Ob for the buffer, and Om for the melittin-positive control.

[3] = D-amino acid lipopeptides, lesion diameter, 48 h, at least three leaves
[4] = D-amino acid lipopeptides, 100 µL infiltrated into tobacco leaves, lesion diameter, 48 h, at least three leaves
[5] = D-amino acid lipopeptides, 250 µM, 100 µL infiltrated into tobacco leaves, lesion diameter, 48 h, at least three leaves
[6] = Table 2, 250 µM infiltrated into tobacco leaves

Molecule	Size of the lesion (mm) 50 µM [1, 3]	Size of the lesion (mm) 150 µM [1, 4]	Size of the lesion (mm) 250 µM [1, 5]	Size of the lesion (mm) 250 µM [1, 6]	Hemolysis (%) 50 µM [2]	Hemolysis (%) 250 µM ([2]; relative to melittin)	necrosis in infiltrated tobacco leaves ([1]; positive control, 250 µM)	Hemolysis (%) 150 µM ([2]; 150 µM, relative to melittin)	Hemolysis (%) 375 µM ([2]; relative to melittin)
CCCCCCCCCCCC(=O)NCCCC[C@H](NC(=O)[C@@H](NC(=O)[C@H](CCCCN)NC(=O)[C@H](CCCCN)NC(=O)[C@@H](Cc1ccccc1)NC(=O)[C@H](CC(C)C)NC(=O)[C@H](CCCCN)NC(=O)[C@H](CCCCN)NC(C)=O)[C@@H](C)CC)C(=O)N[C@@H](CCCCN)C(=O)N[C@@H](Cc1ccc(O)cc1)C(=O)N[C@@H](CC(C)C)C(N)=O [BP490, Ac-KKLfKKIK(COC11H23)KYL-NH2] (Ac-KKL[dF]KKIK(Lauroyl)KYL-NH2)	4 ± 0.7 mm	6 ± 2 mm	11 ± 3 mm	11 ±3 mm	100 ± 3%	100 ± 6%			
melittin [reference compound]							18 mm		
CCCC(=O)NCCCC[C@H](NC(=O)[C@@H](NC(=O)[C@H](CCCCN)NC(=O)[C@H](CCCCN)NC(=O)[C@@H](Cc1ccccc1)NC(=O)[C@H](CC(C)C)NC(=O)[C@H](CCCCN)NC(=O)[C@H](CCCCN)NC(C)=O)[C@@H](C)CC)C(=O)N[C@@H](CCCCN)C(=O)N[C@@H](Cc1ccc(O)cc1)C(=O)N[C@@H](CC(C)C)C(N)=O [BP474, Ac-KKLfKKIK(COC3H7)KYL-NH2] (Ac-KKL[dF]KKIK(Butyryl)KYL-NH2)	0 ± 0 mm	2 ± 2 mm	4 ± 2 mm	4 ± 2 mm	0 ± 0%	0 ± 0%		0 ± 0%	0 ± 0%
CCCC(=O)NCCCC[C@H](NC(=O)[C@H](Cc1ccc(O)cc1)NC(=O)[C@H](CCCCN)NC(=O)[C@H](CC(C)C)NC(=O)[C@@H](NC(=O)[C@H](CCCCN)NC(=O)[C@H](CCCCN)NC(=O)[C@@H](Cc1ccccc1)NC(=O)[C@H](CC(C)C)NC(=O)[C@H](CCCCN)NC(=O)[C@H](CCCCN)NC(C)=O)[C@@H](C)CC)C(N)=O [BP496, Ac-KKLfKKILKYK(COC3H7)-NH2] (Ac-KKL[dF]KKILKYK(Butyryl)-NH2)	3 ± 0.5 mm	4 ± 0.5 mm	10 ± 3 mm	10 ± 3 mm		1 ± 1%			1 ± 0.5%
CCCC(=O)N[C@@H](CCCCN)C(=O)N[C@@H](CCCCN)C(=O)N[C@@H](CC(C)C)C(=O)N[C@H](Cc1ccccc1)C(=O)N[C@@H](CCCCN)C(=O)N[C@@H](CCCCN)C(=O)N[C@H](C(=O)N[C@@H](CC(C)C)C(=O)N[C@@H](CCCCN)C(=O)N[C@@H](Cc1ccc(O)cc1)C(=O)N[C@@H](CC(C)C)C(N)=O)[C@@H](C)CC [BP485, C3H7CO-KKLfKKILKYL-NH2]	4 ± 0.7 mm	7 ± 0.7 mm	12 ± 1 mm	12 ± 1 mm		24 ± 9%			
CCCC(=O)NCCCC[C@H](NC(=O)[C@H](CC(C)C)NC(=O)[C@@H](NC(=O)[C@H](CCCCN)NC(=O)[C@H](CCCCN)NC(=O)[C@@H](Cc1ccccc1)NC(=O)[C@H](CC(C)C)NC(=O)[C@H](CCCCN)NC(=O)[C@H](CCCCN)NC(C)=O)[C@@H](C)CC)C(=O)N[C@@H](Cc1ccc(O)cc1)C(=O)N[C@@H](CC(C)C)C(N)=O [BP499, Ac-KKLfKKILK(COC3H7)YL-NH2]	6 ± 1 mm	8 ± 2 mm	8 ± 2 mm	8 ± 2 mm		11 ± 1%			
